Assay [1] relates to Dengue 4 virus MY01-22713. The assay can be described thus: High-content imaging cell-based flavivirus immunodetection (HCl-CFI) assay, Dengue 4. Conditions: Dengue virus, A549, 48 h, read-out: Dengue 4 virus MY01-22713 in A549 using HCl [Inhibitor/IC50] Qualified AC50, A549 cells, 48 h, viral E protein expression.
Assay [2] deals with Dengue 2 virus MY97-10340. The assay can be described thus: High-content imaging cell-based flavivirus immunodetection (HCl-CFI) assay, Dengue 2. Conditions: Dengue virus, A549, 48 h, read-out: Dengue 2 virus MY97-10340 in A549 using HCl [Inhibitor/IC50] Qualified AC50, A549 cells, MOI 0.3, 48 h, viral E protein expression. The procedure: High-Content Imaging Cell-Based Flavivirus Immunodetection (HCl-CFI) Assay
A549 cells (7×10^3 cells per well) in a 384-well plate were infected with the DENV-2 (MY97-10340) strain at an MOI of 0.3. The cells were then treated with 3-fold, 10-point serial dilutions of test compound. After 48 h, the cells were fixed with paraformadehyde, and the viral E protein detected with 4G2 antibody labeled with Dylight™ 488 (GenScript). Cell nuclei were stained with Draq5 (Pierce/Thermo), and images were taken on the Opera imaging system (Perkin Elmer). A dose-response curve was plotted to calculate the effective concentration of compound needed to reduce expression of E protein by 50% (EC50) using GraphPad Prism.
The resulted EC50 values are summarized in Table 1 below: ±≥1 μM; 1 μM>++≥0.1 μM; 0.1 μm>+++

Assay [3] has as its system Dengue 1 virus MY97-10245. In words: High-content imaging cell-based flavivirus immunodetection (HCl-CFI) assay, Dengue 1. The note with it: Dengue virus, A549, 48 h, read-out: Dengue 1 virus MY97-10245 in A549 using HCl [Inhibitor/IC50] Qualified AC50.
The test system of assay [4] is Dengue 3 virus MY05-34640-WT-C6/36. The assay can be described thus: High-content imaging cell-based flavivirus immunodetection (HCl-CFI) assay, Dengue 3. Conditions: Dengue virus, A549, 48 h, read-out: Dengue 3 virus MY05-34640-WT-C6/36 in A549 using HCl [Inhibitor/IC50] Qualified AC50.

Each structure is given as a SMILES string. Where a name gives a salt, the structure may show the parent alone.

`CS(=O)(=O)c1ccc(CC(=O)Nc2sc3c(c2C#N)CCN(Cc2cc(Cl)ccc2Cl)C3)cc1` [Example 121, N-(3-cyano-6-(2,5-dichlorobenzyl)-4,5,6,7-tetrahydrothieno[2,3-c]pyridin-2-yl)-2-(4-(methylsulfonyl)phenyl)acetamide]: the EC50 in assay [1] was 100 to 1000 nM; in assay [2], 100 to 1000 nM; in assay [3], over 1000 nM; in assay [4], over 1000 nM.

On to `COc1cc(CC(=O)Nc2sc3c(c2C#N)CN(CC2CC(F)(F)C2)CC3)ccc1S(C)(=O)=O` [Example 51, N-(3-cyano-5-((3,3-difluorocyclobutyl)methyl)-4,5,6,7-tetrahydrothieno[3,2-c]pyridin-2-yl)-2-(3-methoxy-4-(methylsulfonyl)phenyl)acetamide], for which the EC50 in assay [1], in assay [2], in assay [3] and in assay [4] was 100 to 1000 nM in each case.

In the case of `CC1Cc2sc(NC(=O)Cc3ccc(S(N)(=O)=O)cc3)c(C#N)c2CN1CC1CC(F)(F)C1` (stereo not drawn) [Example 56, N-(3-cyano-5-((3,3-difluorocyclobutyl)methyl)-6-methyl-4,5,6,7-tetrahydrothieno[3,2-c]pyridin-2-yl)-2-(4-sulfamoylphenyl)acetamide], the EC50 in assay [1] was under 100 nM; in assay [2], 100 to 1000 nM; in assay [3] it was over 1000 nM; in assay [4] it was 100 to 1000 nM.

For `CC(O)(c1ccc(CC(=O)Nc2sc3c(c2C#N)CN(CC2CCCCC2)CC3)cc1)C(F)(F)F` (stereo not drawn) [Example 8, N-(3-cyano-5-(cyclohexylmethyl)-4,5,6,7-tetrahydrothieno[3,2-c]pyridin-2-yl)-2-(4-(1,1,1-trifluoro-2-hydroxypropan-2-yl)phenyl)acetamide], the EC50 in assay [1] is 100 to 1000 nM; in assay [2], 100 to 1000 nM; in assay [3] it was over 1000 nM; in assay [4], 100 to 1000 nM.

Take `N#Cc1c(NC(=O)Cc2ccc3c(c2)S(=O)(=O)NC3)sc2c1CN(Cc1cccc(F)c1)CC2` [Example 25, N-(3-cyano-5-(3-fluorobenzyl)-4,5,6,7-tetrahydrothieno[3,2-c]pyridin-2-yl)-2-(1,1-dioxido-2,3-dihydrobenzo[d]isothiazol-6-yl)acetamide]: the EC50 was under 100 nM in assay [1], under 100 nM in assay [2], 100 to 1000 nM in assay [3] and under 100 nM in assay [4].

As for `N#Cc1c(NC(=O)Cc2ccc(S(N)(=O)=O)cc2)sc2c1CCN(Cc1ccc(F)cc1)C2` [Example 101, N-(3-cyano-6-(4-fluorobenzyl)-4,5,6,7-tetrahydrothieno[2,3-c]pyridin-2-yl)-2-(4-sulfamoylphenyl)acetamide], the EC50 in assay [1] was under 100 nM; in assay [2], 100 to 1000 nM; in assay [3] it was 100 to 1000 nM; in assay [4], 100 to 1000 nM.

With `CCOc1cc(CC(=O)Nc2sc3c(c2C#N)CN(CC2CC(F)(F)C2)C(C)(C)C3)ccc1S(N)(=O)=O` [Example 78, N-(3-cyano-5-((3,3-difluorocyclobutyl)methyl)-6,6-dimethyl-4,5,6,7-tetrahydrothieno[3,2-c]pyridin-2-yl)-2-(3-ethoxy-4-sulfamoylphenyl)acetamide], the EC50 in assay [1] is under 100 nM; in assay [2] it was under 100 nM; in assay [3], 100 to 1000 nM; in assay [4], under 100 nM.

With `N#Cc1c(NC(=O)Cc2ccc(CS(N)(=O)=O)cc2)sc2c1CN(CC1CCCCC1)CC2` [Example 17, N-(3-cyano-5-(cyclohexylmethyl)-4,5,6,7-tetrahydrothieno[3,2-c]pyridin-2-yl)-2-(4-(sulfamoylmethyl)phenyl)acetamide], the EC50 was under 100 nM in assay [1], under 100 nM in assay [2], 100 to 1000 nM in assay [3] and under 100 nM in assay [4].

As to `N#Cc1c(NC(=O)Cc2ccc(S(N)(=O)=O)cc2)sc2c1CN(CC1CCCC1)CC2` [Example 4, N-(3-cyano-5-(cyclopentylmethyl)-4,5,6,7-tetrahydrothieno[3,2-c]pyridin-2-yl)-2-(4-sulfamoylphenyl)acetamide], the EC50 in assay [1] was under 100 nM; in assay [2], under 100 nM; in assay [3], 100 to 1000 nM; in assay [4], 100 to 1000 nM.

On to `COCCOc1cccc(CC(=O)Nc2sc3c(c2C#N)CN(Cc2cccc(F)c2)CC3)c1` [Example 31, N-(3-cyano-5-(3-fluorobenzyl)-4,5,6,7-tetrahydrothieno[3,2-c]pyridin-2-yl)-2-(3-(2-methoxyethoxy)phenyl)acetamide], for which the EC50 was 100 to 1000 nM in assay [1], 100 to 1000 nM in assay [2], over 1000 nM in assay [3] and 100 to 1000 nM in assay [4].

Turning to `N#Cc1c(NC(=O)Cc2ccc(S(N)(=O)=O)cc2)sc2c1CCN(Cc1cc(F)ccc1F)C2` [Example 113, N-(3-cyano-6-(2,5-difluorobenzyl)-4,5,6,7-tetrahydrothieno[2,3-c]pyridin-2-yl)-2-(4-sulfamoylphenyl)acetamide], the EC50 in assay [1] is under 100 nM; in assay [2] it was under 100 nM; in assay [3] it was 100 to 1000 nM; in assay [4], under 100 nM.

For the compound `CC1Cc2sc(NC(=O)Cc3ccc(S(N)(=O)=O)cc3)c(C#N)c2CN1CCC1CCCCC1` (stereo not drawn) [Example 68, N-(3-cyano-5-(2-cyclohexylethyl)-6-methyl-4,5,6,7-tetrahydrothieno[3,2-c]pyridin-2-yl)-2-(4-sulfamoylphenyl)acetamide], the EC50 in assay [1] was under 100 nM; in assay [2], under 100 nM; in assay [3], 100 to 1000 nM; in assay [4], under 100 nM.

`N#Cc1c(NC(=O)Cc2ccc(S(N)(=O)=O)cc2)sc2c1CCN(Cc1ccc(F)cc1Cl)C2` [Example 107, N-(6-(2-chloro-4-fluorobenzyl)-3-cyano-4,5,6,7-tetrahydrothieno[2,3-c]pyridin-2-yl)-2-(4-sulfamoylphenyl)acetamide]: the EC50 in assay [1] is under 100 nM; in assay [2] it was 100 to 1000 nM; in assay [3], 100 to 1000 nM; in assay [4] it was 100 to 1000 nM.

Consider `CC1(C)Cc2sc(NC(=O)Cc3ccccc3)c(C#N)c2CN1CC1CCCCC1` [Example 73, N-(3-cyano-5-(cyclohexylmethyl)-6,6-dimethyl-4,5,6,7-tetrahydrothieno[3,2-c]pyridin-2-yl)-2-phenylacetamide], for which the EC50 in assay [1], in assay [2], in assay [3] and in assay [4] was 100 to 1000 nM throughout.

Take `N#Cc1c(NC(=O)Cc2ccc3c(c2)CNS3(=O)=O)sc2c1CN(CC1CCCCC1)CC2` [Example 16, N-(3-cyano-5-(cyclohexylmethyl)-4,5,6,7-tetrahydrothieno[3,2-c]pyridin-2-yl)-2-(1,1-dioxido-2,3-dihydrobenzo[d]isothiazol-5-yl)acetamide]: the EC50 was under 100 nM in assay [1], under 100 nM in assay [2], 100 to 1000 nM in assay [3] and under 100 nM in assay [4].

Turning to `COC(=O)c1ccccc1CN1CCc2c(sc(NC(=O)Cc3ccc(S(N)(=O)=O)cc3)c2C#N)C1` [Example 91, Methyl-2-((3-cyano-2-(2-(4-sulfamoylphenyl)acetamido)-4,5-dihydrothieno[2,3-c]pyridin-6-(71-1)-yl)methyl)benzoate hydrochloride], the EC50 in assay [1] was 100 to 1000 nM; in assay [2] it was over 1000 nM; in assay [4], over 1000 nM.

The values are drawn from US12012417B2, “N-substituted tetrahydrothienopyridine derivatives and uses thereof” (NOVARTIS AG, priority 2018, dated 2024).
